These results are taken from paper PMC7497692 (Investigational New Drugs, 2020).

The nature of data set [1]: Oral PK of tepotinib and total radioactivity in plasma and blood (part A). The class given is in vivo, human healthy male volunteers. To be noted: min–max, n=6. As to the method:
Participants were hospitalized from day 1 to day 16 of the study, and further assessed on days 19, 22, and 25 (trial end). […] Pre-dose feces and urine samples were collected on day 1 and day 2, respectively. Urine was collected at 4- to 12-h intervals on day 1 and every 24 h thereafter up to day 16. Feces were collected every 24 h up to day 16. Provision was made to collect further samples up to day 39 if >1% of the administered dose was detectable in the total (urine and feces) excreta per day on two consecutive measurements.
(§1) In brief, the isotopically labeled internal standard [^2H]-MSC2156119A was added to 20 μL K2-ethylenediaminetetraacetic acid (EDTA) plasma. […] Samples were centrifuged and 10 μL aliquots of the supernatant were injected onto an Acquity Charged Surface Hybrid™ (CSH) C18 column (2.1 × 50 mm; […]; Waters, Milford, Massachusetts, USA). Separation was carried out using a mobile phase gradient (eluent A: water/formic acid [100 + 1, v/v]; eluent B: acetonitrile/formic acid [100 + 1, v/v]) with a flow rate of 0.6 mL/min. […] The lower limit of quantification (LLOQ) was 5.00 ng/mL, and the calibration standard responses were linear over the range between 5.00 and 2500 ng/mL using a weighted (1/x^2) linear regression.
Total radioactivity in blood, plasma, urine, and feces samples, and quick counts in urine and feces samples were determined at the bioanalytical laboratory of PRA (Assen, The Netherlands) using liquid scintillation counting (LSC). Scintillation cocktail Ultima Gold™ (5 mL; Perkin Elmar, Waltham, Massachusetts, USA) was directly spiked into 250 μL plasma and 1000 μL urine samples, respectively, whereas 300 μL aliquots of blood samples were solubilized and decolorized before adding 18 mL of the scintillation cocktail prior to LSC. Feces samples were (quantitatively) homogenized with one or two weight equivalents of water, and an accurately weighted aliquot of approximately 500 mg of the homogenate was dried at 50 °C for at least 3 h. […]
The maximum plasma concentration (Cmax) and time to reach maximum concentration (tmax) were derived directly from the plasma concentration–time data. […] The area under the plasma concentration–time curve from 0 to t (last measurable concentration; AUC0–t) was calculated using a mixed log–linear trapezoidal method. […] Amounts excreted in urine, feces, and total (urine + feces) were calculated as the sum of amounts (concentration multiplied by volume) for each collection from time 0 to time t. […] Total body clearance (CL) and apparent body clearance (CL/f) were determined by dose/AUC0–∞, and total volume of distribution (Vz) and apparent volume of distribution (Vz/f) were calculated by dose/(AUC0–∞*λz) after IV and oral administration, respectively. […]

Data set [2] in a line: Oral and IV tracer PK and absolute bioavailability (part B). The class given is in vivo, human healthy male volunteers. To be noted: for bioavailability: 500 mg; for tlag / tmax: median (min–max). On the procedure: Participants were hospitalized from day 1 to day 7 of the study, and further assessed on days 9, 11, and 14 (study end).
as §1
The accelerator mass spectrometry (AMS) analysis of [^14C]-tepotinib in plasma samples in part B of the trial was performed by Eckert & Ziegler Vitalea Science (Davis, California, USA) using a validated method that involves isolation of the analyte by ultra-high-performance liquid chromatography (UPLC) fractionation, followed by the quantification of the ^14C content in collected fractions using AMS [26]. […] Following protein precipitation and further chemical steps, 50 μL of the reconstituted extracts were injected onto a Waters Acquity UPLC instrument equipped with a CSH fluoro-phenyl analytical column (3.0 × 100 mm; 1.7 μm; Waters, Milford, Massachusetts, USA) and an ethylene bridged hybrid C18 (2.1 × 5 mm; 1.7 μm; Waters, Milford, Massachusetts, USA) pre-column. Separation of [^14C]-tepotinib from potentially interfering metabolites or degradants that may have been present in the study samples was carried out using a mobile phase gradient (eluent A: 5 mM ammonium acetate in water; eluent B: acetonitrile) with a flow rate of 0.75 mL/min. […] Samples were then introduced into the BioMICADAS AMS instrument (PSI/ETH, Zurich, Switzerland). The LLOQ was 0.0883 pg/mL.
The maximum plasma concentration (Cmax) and time to reach maximum concentration (tmax) were derived directly from the plasma concentration–time data. Lag time (tlag) was the time prior to the first measurable (non-zero) concentration. The area under the plasma concentration–time curve from 0 to t (last measurable concentration; AUC0–t) was calculated using a mixed log–linear trapezoidal method. Area under the plasma concentration–time curve until the last sampling time (AUCall), which corresponds to AUC0–240 h within the observation period, was used for metabolite calculations. Amounts excreted in urine, feces, and total (urine + feces) were calculated as the sum of amounts (concentration multiplied by volume) for each collection from time 0 to time t. The terminal rate constant (λz) was used to estimate the terminal half-life (t½) (ln 2/λz), and the area under the concentration–time curve from time 0 to infinity (AUC0–∞). Total body clearance (CL) and apparent body clearance (CL/f) were determined by dose/AUC0–∞, and total volume of distribution (Vz) and apparent volume of distribution (Vz/f) were calculated by dose/(AUC0–∞*λz) after IV and oral administration, respectively. Volume of distribution of the central compartment (Vc) was derived by dividing the dose by the initial drug plasma concentration after IV administration. Absolute bioavailability was calculated as F = (AUCoral/doseoral)/(AUCIV/doseIV) × 100. The ratios (%) AUCtepotinib or metabolite/AUCtotal radioactivity were calculated as a percentage of the molar AUCs.

Setting [3] is: tepotinib in plasma, median, single oral 498 mg capsules.
The mark [4] stands for this setting: single oral 500 mg tablet, geometric mean (geometric CV%), min–max.
The mark [5] stands for this setting: single oral 500 mg tablet, listed as tepotinib.

Like-named read-outs stand apart in the source and are kept apart here.

Usually t½ stands for the time in which the quantity being followed falls by half. As a reminder, the bioavailability is the share of a dose that reaches the circulation, judged against a reference dose that is usually intravenous. By half-life is commonly meant the time in which the quantity being followed falls by half. As to `CN1CCC(COc2cnc(-c3cccc(Cn4nc(-c5cccc(C#N)c5)ccc4=O)c3)nc2)CC1` [Tepotinib], the t½ in data set [1] (tepotinib in plasma, geometric mean (geometric CV%), single oral 498 mg capsules) was 33 h; in data set [2] (IV tracer, geometric mean (geometric CV%), min–max, plasma), 31.2 h; in data set [2] (setting [4]) it was 28.3 h. Moreover, the tlag in data set [1] (setting [3]) is 2 h; in data set [1] (total radioactivity in plasma, median, oral part A), 2.5 h; in data set [2] (single oral 500 mg tablet) it was 0.52 (0.25–2.0) Hours; in data set [2] (setting [5]) it was 0.5 h. For the same compound, the tmax in data set [1] (setting [3]) was 9 h; in data set [2] (single oral 500 mg tablet), 10.0 (3.0–10.0) Hours; in data set [2] (setting [5]) it was 10 h. Further, the “absolute bioavailability, inter-individual variability (geometric CV)” value in data set [2] (500 mg tablet vs IV tracer, n=6) came out at 10.8%. Besides, the Vc in data set [2] (IV tracer, geometric mean (geometric CV%), min–max) is 34.6 L. Further, the bioavailability in data set [2] (male, human, in vivo, geometric mean, 500 mg phase II tablet formulation vs IV tracer, n=6, read-out: absolute bioavailability) is 72%; in data set [2] (male, human, in vivo, range, 500 mg tablet vs IV tracer, n=6, read-out: absolute bioavailability, range) it was 62 to 81%. In data set [2] (male, human, in vivo, IV tracer, geometric mean (geometric CV%), min–max), the clearance was 213 mL/min. In data set [2] (male, human, in vivo, IV tracer, geometric mean (geometric CV%), min–max, read-out: Vz), the Vd amounted to 574 L. In addition, the Vd/F in data set [2] (male, human, in vivo, single oral 500 mg tablet, geometric mean (geometric CV%), min–max, read-out: Vz/f) stood at 726 L. This compound had a half-life in data set [2] (male, human, in vivo, summary statement in the discussion) of 1800 min. The same compound yielded a CL/f in data set [2] (setting [4]) of 17.8 L/h.
